{"source": "patent US20050186137A1", "about": "“Novelty-induced hypophagia-based assays for identifying agents to treat anxiety and depression” (priority 2003, published 2005)", "key": {"[1]": {"system": "BALB/cJ, DBA/2J, C57BL/6J, and 129SvEv mice", "test": "Modified forced swim test, strain comparison", "type": "in vivo, mouse", "description": "(§1) For the strain comparison study, 36 male mice of four strains (BALB/cJ, DBA/2J, C57BL/6J, 129SvEv) were subjects for a total of 144 mice. Mice were tested in the OF beginning on day 30 or 33 of chronic fluoxetine treatment. Mice were tested for 15 min on three consecutive days to maximize activity levels. Mice were then tested in the modified FST on day 36 or 37.\n(§2) Modified forced swim test: Mice were placed into 19 cm diameter plastic buckets which were 23 cm deep filled with 23°-25° C. water, and videotaped for six minutes. Only the last four minutes were scored for four measures: swimming, immobility, climbing, or other. The predominant behavior was recorded every 5 sec. For chronic and subchronic fluoxetine studies in BALB/cJ mice, mice were pre-exposed to the FST for 6 min 24 hours before test day to increase sensitivity for detecting antidepressant behavioral effects (Borsini et al., 1989).\n(§3) Modified forced swim test: Two-factor ANOVAs with fluoxetine as a between-subjects factor and block (1 min intervals) as a within-subject factor were applied to three different measures: swimming, immobility, and climbing. Significant main effects of fluoxetine and interactions were resolved using post-hoc ANOVAs with adjusted p-values, and/or Newman-Keuls post-hoc tests."}, "[2]": {"system": "BALB/cJ mice", "test": "Modified forced swim test, chronic vs. subchronic fluoxetine", "type": "in vivo, mouse", "description": "For chronic fluoxetine studies in BALB/cJ mice, 60 male BALB/cJ mice were tested in the OF for 30 min on days 19 or 20 of chronic fluoxetine treatment. Mice were then pretested and tested in the modified FST on days 21 and 22, respectively. Animals were then allowed to adapt to being singly housed, and were trained for NIH on days 25-27. Home cage and novel cage testing occurred on days 28 and 29, respectively. Mice were then assessed for PPI on days 34 or 35.\nStudies of subchronic fluoxetine were conducted using separate groups of 60 male BALB/cJ mice to prevent fluoxetine treatment from exceeding one week. One group was tested in the OF after one day of subchronic fluoxetine treatment. Mice were then pretested after 6 and tested after 7 days of subchronic fluoxetine treatment in the modified FST. A second group of BALB/cJ mice began fluoxetine treatment after being singly housed. They were then tested in the NIH test after 4 (home) and 5 (novel) days of subchronic fluoxetine treatment. A third group was tested for PPI after one or two days of subchronic fluoxetine treatment.\nas §2, §3"}, "[3]": {"details": "patients taking 20-80 mg/day Prozac; cited from earlier work"}, "[4]": {"system": "animals", "details": "animals without drug withdrawal or chronic stress; low dose fluoxetine; cited from earlier work"}, "[5]": {"system": "BALB/cJ, DBA/2J, C57BL/6J, and 129SvEv mice", "test": "Open field test, strain comparison", "type": "in vivo, mouse", "details": "for center measures: chronic fluoxetine 5 or 10 mg/kg/day", "description": "as §1\nOpen field test: Motor activity was quantified in four Plexiglas OF boxes 43 x 43 cm (MED Associates, Georgia, Vt.). Two sets of 16 pulse-modulated infrared photobeams were placed on opposite walls 2.5-cm apart to record x-y ambulatory movements. Activity chambers were computer interfaced for data sampling at 100-ms resolution. The computer defined grid lines that divided each OF into center and surround regions, with each of four lines being 11 cm from each wall. Dependent measures were the number of entries into the center, the distance traveled in the center, total time spent in the center, and distance traveled in the center divided by total distance traveled. Overall motor activity was quantified as the total distance traveled (cm).\nOpen field test: For Experiment 1, two-factor ANOVAs with fluoxetine as a between-subject factor and day as a within-subject factor were applied to five measures for each strain: time spent in the center, distance traveled in the center, center distance/total distance traveled, entries into the center, and total distance traveled. Main effects of fluoxetine or significant interactions of fluoxetine and day were resolved using post-hoc ANOVAs with adjusted p-values and/or Newman-Keuls post-hoc tests. Subchronic and chronic experiments in Balb/cJ mice were analyzed using one-way ANOVAs with fluoxetine as a between-subjects factor and Newman-Keuls post-hoc tests for the same variables. Because data deviated substantially from a normal distribution due to low activity levels of Balb/cJ mice, analyses were applied to log transformed data.\nRemaining significant effects of fluoxetine indicate independence between measures of locomotor activity and center measures."}, "[6]": {"details": "administration of fluoxetine in the drinking water; cited from earlier work"}, "[7]": {"details": "BALB/cJ mice, chronic 10 mg/kg/day, relative to 5 mg/kg/day and controls"}, "[8]": {"details": "129SvEv mice, chronic 5 and 10 mg/kg/day, day 1, relative to controls"}}}
{"smiles": "CNCCC(Oc1ccc(C(F)(F)F)cc1)c1ccccc1", "note": "(stereo not shown) [fluoxetine]", "values": [{"measurement": "immobility", "setting": "[1]; [7]", "result": "decreased immobility"}, {"measurement": "swimming", "setting": "[1]; [7]", "result": "increased swimming"}, {"measurement": "sensitivity to chronic treatment in the modified FST across strains", "setting": "[1]; BALB/cJ, DBA/2J, C57BL/6J, 129SvEv, chronic 5 or 10 mg/kg/day", "result": "BALB/cJ was the only strain showing sensitivity"}, {"measurement": "climbing", "setting": "[1]; chronic fluoxetine 5 or 10 mg/kg/day", "result": "No effects"}, {"measurement": "effect in the modified FST", "setting": "[2]; acute administration of 10 mg/kg/day in the drinking water, expected", "result": "no effect"}, {"measurement": "climbing", "setting": "[2]; chronic 25 mg/kg/day", "result": "increased climbing relative to all other doses"}, {"measurement": "swimming", "setting": "[2]; chronic 10 and 18 mg/kg/day, compared to 0 and 25 mg/kg/day", "result": "increases in swimming"}, {"measurement": "immobility", "setting": "[2]; chronic fluoxetine", "result": "No significant effects"}, {"measurement": "climbing", "setting": "[2]; subchronic (7 days) 18 mg/kg/day relative to the 0 dose", "result": "increase in climbing"}, {"measurement": "immobility", "setting": "[2]; subchronic (7 days) fluoxetine", "result": "no effect"}, {"measurement": "swimming", "setting": "[2]; subchronic (7 days) fluoxetine", "result": "no effect"}, {"measurement": "range of plasma levels found in patients", "setting": "[3]", "result": "100 to 700", "unit": "ng/mL"}, {"measurement": "intracranial self-stimulation reward thresholds", "setting": "[4]", "result": "no effect"}, {"measurement": "locomotor activity", "setting": "[5]; 129SvEv mice, chronic 10 mg/kg/day, relative to both other doses on day 1 and to 5 mg/kg/day on day 3", "result": "reduced locomotor activity"}, {"measurement": "time in the center", "setting": "[5]; 129SvEv mice, chronic 5 and 10 mg/kg/day", "result": "reduced time in the center relative to control"}, {"measurement": "center entries", "setting": "[5]; [8]", "result": "reduced"}, {"measurement": "distance traveled in the center", "setting": "[5]; [8]", "result": "reduced the distance traveled in the center"}, {"measurement": "center measures", "setting": "[5]; BALB/cJ mice", "result": "produced no changes"}, {"measurement": "locomotor activity", "setting": "[5]; BALB/cJ mice, chronic fluoxetine 5 or 10 mg/kg/day in drinking water, three consecutive days", "result": "no changes in locomotor activity"}, {"measurement": "locomotor activity", "setting": "[5]; C57BL/6J mice, chronic 10 mg/kg/day, relative to controls", "result": "reduced locomotor activity overall"}, {"measurement": "entries into the center", "setting": "[5]; C57BL/6J mice, chronic 5 and 10 mg/kg/day, relative to control", "result": "overall reduction in the number of entries into the center"}, {"measurement": "center measures", "setting": "[5]; DBA/2J mice", "result": "produced no changes"}, {"measurement": "locomotor activity", "setting": "[5]; DBA/2J mice, chronic fluoxetine (10 mg/kg/day vs controls on day 3)", "result": "trend towards increased locomotor activity"}, {"measurement": "center/total distance traveled", "setting": "[5]; any of the four strains, chronic fluoxetine", "result": "no effects"}, {"measurement": "time by which steady state blood levels have been achieved", "setting": "[6]", "result": "≤ 5", "unit": "days"}]}
